We go through 87 molecules from a melting point compilation (Tetko et al.; mined from patent text by program, amines drawn as free bases though some values may be those of a salt).

As a reminder, the melting point is the temperature of the solid-liquid transition. Take `CN(C)CCOc1nccc(-c2c(-c3ccc(F)cc3)ncn2C2CCC(=O)CC2)n1`: the melting point lay within 84 to 86 °C.

For `O=[N+]([O-])c1oc2ccc(N3Cc4ccccc4C3)cc2c1-c1ccccc1`, the melting point lay within 228 to 230 °C.

As for `CCc1c(Sc2cc(C)cc(C)c2)n(CC2=CC(CO)C(CO)C2)c(=O)[nH]c1=O` (configuration not stated), the melting point lay in the range of 156 to 157 °C.

In the case of `Oc1cc2c(c3c1CC=CC3)Nc1ccccc1S2`, the melting point was found to be 166 °C.

For the molecule `Cc1oc(-c2ccccc2)nc1COc1ccc(C=O)cn1`, the melting point was in the range of 116 to 117 °C.

`C=CCNC(=O)CN1CCN(Cc2ccc3c(c2)NC(=O)C(C)O3)CC1` (configuration not stated) gave a melting point of 151 to 158 °C.

For `COc1ccc(Br)cc1CN1CCC(=O)C(C(c2ccc(F)cc2)c2ccc(F)cc2)C1` (configuration not stated), the melting point fell in the range of 129 to 130 °C.

Consider `CC(C)Oc1c(C(N)=O)n(C)c2ccc(O)cc12`, for which the melting point lay within 234 to 237 °C.

Molecule `Cc1ccc(CCOc2ccc(CC3SC(=O)NC3=O)cc2)nc1` (configuration not stated) yielded a melting point of 192 to 193 °C.

With `CC(=O)Oc1ccc(-c2ccccc2)cc1C1(OC(C)=O)C(=O)c2ccccc2C1=O`, the melting point lay in the range of 196 to 198 °C.

On to `CCCCc1nn(-c2cc(NC(C)=O)ccc2Cl)c(=O)n1Cc1ccc(-c2cc(CCC)ccc2S(=O)(=O)NC(=O)OC(C)(C)C)cc1F`, for which the melting point is below 130 °C.

`CC1N=C(c2ccccc2Cl)c2cc([N+](=O)[O-])ccc2NC1=S` (single isomer, unassigned; (+)) registered a melting point of 258 to 260 °C.

`O=C(C=Cc1ccc(Cl)cc1)C(CC=Cc1ccc(Cl)cc1)c1ccccc1` (configuration not stated) registered a melting point of 115 to 118 °C.

Molecule `COC(=O)C1(O/N=C(\C(=O)OC(c2ccccc2)c2ccccc2)c2csc(NC(c3ccccc3)(c3ccccc3)c3ccccc3)n2)CCCCC1` displayed a melting point of 180 to 182 °C.

`O=C1NC(=O)C2(c3cccc([N+](=O)[O-])c3)CC12` (configuration not stated) returned a melting point of 173 to 174 °C.

`Nc1cc(Cl)c(OCC(F)(F)F)cc1F` registered a melting point of 40 to 41 °C.

For the molecule `Cc1cc2n(c1)CN(CCCO)c1ccccc1-2`, the melting point was 77 to 78 °C.

As to `COc1ccc(C(O)(C(F)(F)F)C(F)(F)F)cc1C=CC(=O)O`, the melting point was 184 to 186 °C.

The molecule `COC(=O)c1cccc2nc(N3CCCCC3)n(Cc3ccc(-c4ccccc4C#N)cc3)c12` registered a melting point of 119 to 121 °C.

For the molecule `CCn1cc(C2CCC(=O)CC2)c2cc(C#N)ccc21`, the melting point turned out to be 124 °C.

Take `CCCCOc1ccc2cc(C(C)NC(N)=O)ccc2c1` (configuration not stated): the melting point was in the range of 135 to 137 °C.

The molecule `COc1ccc(C(=O)Cc2c(Cl)cncc2Cl)c2c1OCC2C` (configuration not stated) yielded a melting point of 99 to 104 °C.

Consider `CCCNc1ccc(C=O)cc1[N+](=O)[O-]`, for which the melting point was found to be 73.6 °C.

As to `CC1(C)OC(=O)Nc2ccc(-c3ccccc3F)cc21`, the melting point fell in the range of 164 to 165 °C.

In the case of `O=C(O)Cc1c(Cl)cnc2c(NC(=O)c3c(Cl)cccc3Cl)cccc12`, the melting point was in the range of 257 to 259 °C.

As to `CC(=O)c1cccc(C(=O)O)c1O`, the melting point fell in the range of 135 to 136 °C.

For `O=C(NC1CCC1)c1cc([N+](=O)[O-])[nH]n1`, the melting point came out at 240 °C.

For the molecule `CC(=O)Oc1cc2nc[nH]c(=O)c2cc1OC(C)=O`, the melting point fell in the range of 235 to 237 °C.

The molecule `Cc1sc(-n2cccc2)c(C(=O)N2CCCC2)c1C` returned a melting point of 100 °C.

Consider `Cc1nc(-n2ccc(N)cc2=O)sc1C(=O)NCc1ccccc1`, for which the melting point fell in the range of 171 to 172 °C.

In turn, `Cn1c(=O)cc(-c2cccc(Cl)c2)c2cc(C(N)(c3ccc(Cl)cc3)c3cnccc3Cl)ccc21` (configuration not stated) yielded a melting point of 180 °C.

For the molecule `COc1ccc2c(c1)CCC1C2=CCC2(C)C1CCC21OCCO1` (configuration not stated), the melting point lay within 146 to 149 °C.

With `CCOC(=O)N(C)CC1CN(c2c(F)cc3c(=O)c(C(=O)O)cn(C4CC4)c3c2F)CCO1` (configuration not stated), the melting point was in the range of 128 to 131 °C.

As to `CCCCCCCCCCCCCCCc1[nH]c2ccc(C(=S)OCC)cc2c1C`, the melting point fell in the range of 55 to 60 °C.

In turn, `CC(=O)Nc1cccc(-c2nc(=O)c3ccccc3s2)c1` came in with a melting point of 241 to 242 °C.

Molecule `CC1(c2nn(-c3c(Cl)cc(C(F)(F)F)cc3Cl)cc2C#N)CC1(Cl)Cl` (configuration not stated) displayed a melting point of 97 to 98.5 °C.

On to `COC(=O)c1ccc(S(=O)(=O)N2CC[C@H](OS(C)(=O)=O)C2)n1C`, for which the melting point lay in the range of 79 to 81 °C.

In turn, `COc1cc2c(=O)c(C#N)c[nH]c2cc1NC(C)=O` showed a melting point of 305 to 310 °C.

Take `CCCCN(C)CCOc1ccc(-n2c(-c3ccc(O)cc3)c(C)c3cc(O)ccc32)cc1`: the melting point was in the range of 102 to 107 °C.

Regarding `CC1CCN(C(=O)[C@H](CCCCNc2ccccn2)NS(=O)(=O)c2ccc3ccccc3c2)CC1`, the melting point lay within 127 to 129 °C.

The molecule `COc1cc2c(cc1Nc1ncc(Cl)c(NC3(C(=O)NCC#N)CC3)n1)CCN(CC(=O)N(C)C)CC2` registered a melting point of 120 to 128 °C.

The molecule `N=C(N)NN=C1CCc2ccc(N)cc21` registered a melting point above 280 °C.

Turning to `CC(=O)N1CCC(c2nn(-c3ccccc3)c3cc(Br)ccc23)CC1`, the melting point was 136 to 138 °C.

The molecule `CCCCCCCCN1C(=O)C2C3CCC(O3)C2C1=O` (configuration not stated) gave a melting point of 36 to 37 °C.

In turn, `Cc1cc(CNC(=O)c2ccnc(-n3cnn(Cc4ccc(F)c(F)c4)c3=O)c2)no1` came in with a melting point of 160 to 161 °C.

Molecule `CCOP(=O)(Cc1ccc(NC(=O)c2sc(SC)c3c2CCc2sc(CC)nc2-3)cc1)OCC` yielded a melting point of 179 to 180 °C.

For `CCNc1nc(N=[N+]=[N-])nc(NC(C)C(F)(F)F)n1` (configuration not stated), the melting point lay in the range of 69 to 75 °C.

Consider `O=c1[nH]c(=O)n(CCCCN2CC=C(c3ccccc3)CC2)c2ccccc12`, for which the melting point is 170 to 174 °C.

In turn, `C#CCS(=O)(=O)c1ccc(NC(C)=O)cc1` showed a melting point of 175 to 179 °C.

As to `Cc1oc(-c2ccccc2)nc1COc1cccc(COc2nn(Cc3ccccc3)cc2C=O)c1`, the melting point is 131 to 132 °C.

`CC(C)(C)OC(=O)[C@@H]1CS[C@H](c2ccccc2-c2ccccc2)N1C(=O)CNC(=O)Nc1cccc(CC(=O)O)c1` had a melting point of 128 °C.

Molecule `Cc1csc(C2=CCN(CCCC(O)c3ccc(F)cc3)CC2)n1` (configuration not stated) yielded a melting point of 89 to 90.5 °C.

`COc1ccc(N2CC(=O)N(CCN)C2=O)cc1OC`: the melting point fell in the range of 162 to 164 °C.

In turn, `O=C(C=Cc1ccc(Cl)cc1)NN1CC(=O)NC1=O` had a melting point of 230 to 235 °C.

For `CC(C)NCC(O)COc1ccc2c(c1)C1CCC2c2ccccc21` (configuration not stated), the melting point fell in the range of 126 to 127 °C.

`CCOc1cc2ncc(C#N)c(Nc3cccc(Br)c3)c2cc1OCC`: the melting point lay in the range of 173 to 175 °C.

With `N#CN1CCN(c2nn(S(=O)(=O)c3ccccc3)c3cc(Cl)ccc23)CC1`, the melting point fell in the range of 179 to 181 °C.

Take `Cc1ccc([C@H]2Sc3cc(C)ccc3NC(=O)[C@H]2O)cc1`: the melting point lay within 212 to 214 °C.

`O=C1CCC(c2ccc(NC(=O)CCNCCc3ccccc3)cc2)=NN1`: the melting point fell in the range of 130 to 132 °C.

Turning to `CN(CCCOc1ccc(CC2SC(=O)NC2=O)cc1)c1nc2ccccc2o1` (configuration not stated), the melting point fell in the range of 171 to 173 °C.

`COc1ccc2c(c1)c1c(n2C(=O)c2ccccc2)CCCC1C(=O)O` (configuration not stated) showed a melting point of 157 to 159 °C.

Molecule `O=C1c2c(O)ccc(O)c2-c2nn(CC(O)CO)c3ccc(NCCNCCO)c1c23` (configuration not stated) came in with a melting point of 184 to 188 °C.

For `O=C(CCCCl)Nc1ccc2[nH]ncc2c1`, the melting point is 160 to 161 °C.

The molecule `COC(=O)c1ccc(S(C)(=O)=O)c(C2=NOCC2)c1C` displayed a melting point of 104 to 106 °C.

`Cc1cc2nnc(C)n2nc1-c1cccc(C(F)(F)F)c1`: the melting point was in the range of 185 to 187 °C.

In turn, `COC(=O)C(=Cc1cc(OC)cc(OC)c1)c1ccc(Oc2ccc(CBr)cc2)cc1` had a melting point of 79 to 81 °C.

Take `CCOC1CC2(C)C(CCC3C4CCC(C(C)=O)C4(C)CC(NC(=O)OCC(Cl)(Cl)Cl)C32)CC1OC(=O)OCC(Cl)(Cl)Cl` (configuration not stated): the melting point is 147 to 149 °C.

`COC(=O)CCC(=O)c1ccc(F)cc1` showed a melting point of 48 to 50 °C.

For `ClCCCOc1cccc2c(OCCCCl)cccc12`, the melting point is 219 °C.

Regarding `CCOC(=O)C=C(C)NC(=O)Nc1cc(OC(C)C)c(Cl)cc1F`, the melting point lay in the range of 142 to 144 °C.

In turn, `CS(=O)(=O)c1c(C(=O)c2cnoc2C2CC2)ccc(Br)c1F` registered a melting point of 144 to 145 °C.

In the case of `COc1ccc2cc3c(c(-c4ccc(C(F)(F)F)cc4)c2c1)CNC3=O`, the melting point lay in the range of 219 to 221 °C.

In turn, `O=C1c2ccccc2C(=O)C2(CC3CCCC(C(F)(F)F)C3)OC12` (configuration not stated) displayed a melting point of 85 °C.

Consider `c1csc(Cn2ccnc2C2=NCCN2)c1`, for which the melting point was 101 to 103 °C.

Consider `Cn1c(=O)c(C#N)c(N2CCN(C(=O)c3cccs3)CC2)c2cc(F)ccc21`, for which the melting point worked out at 286 °C.

In turn, `O=C(O)c1ccc(NCCCCCCCCc2ccccc2)cc1` came in with a melting point of 113 to 115 °C.

In turn, `Nc1c(C2CNCCO2)oc2ccccc2c1=O` (configuration not stated) yielded a melting point of 140 to 141 °C.

Molecule `Cc1nnc(-c2ccc3occ(-c4cccc(OC(F)(F)F)c4)c3n2)o1` came in with a melting point of 146 to 147 °C.

As for `O=S1(=O)NCN(CCF)c2ccc(Br)cc21`, the melting point is 122 to 124 °C.

In the case of `CCCC(CC(=O)NC(=O)OC(C)(C)C)Nc1ccccc1` (configuration not stated), the melting point was in the range of 103 to 104 °C.

Turning to `NC(=O)N(O)C1C=C(c2cccc(Oc3ccc(Cl)cc3)c2)CC1` (single isomer, unassigned; (+)), the melting point is 143 to 144 °C.

Turning to `O=C(c1nc(-c2ccccc2)nc2ccccc12)N1CCCCCC1`, the melting point was 140 °C.

With `COc1cc2c(Nc3ccc(C)c(OC(C)=O)c3)ncnc2cc1OCc1cccnc1`, the melting point is 113 to 115 °C.

Molecule `CN(C1CCN(C(=O)OC(C)(C)C)CC1)S(=O)(=O)c1ccc(Nc2nccc(Nc3ccc(F)cc3)n2)cc1` displayed a melting point of 174 to 176 °C.

`COCCOCCOc1ccc2c(c1)S(=O)(=O)N(CCl)C2=O` displayed a melting point of 113 to 115 °C.

Take `O=C(O)c1ccccc1Nc1ccc(CCc2ccc(N3CC[C@@H]4CCCC[C@H]4C3)cc2)cc1`: the melting point lay within 203 to 206 °C.

The molecule `C#CCOc1ccc(CCNC(=O)C(=NOC)c2ccc(Cl)c(Cl)c2)cc1OC` displayed a melting point of 107 to 108 °C.
